Results on 17 molecules are retold here after ChEMBL document CHEMBL5726278, “Cytochrome P450 inhibitors and their method of use” (2017).

Each structure is given as a SMILES string.

A short description of this test: Cyp21 Assay : Cyp21 assay protocol: AD293 cells that stably over-express recombinant CYP-21 were seeded in 96 well plates coated with poly D-lysine (10,000 cell per well) and incubated at 37° C. for 24 hours in Dulbecco's Modified Eagle Medium (DMEM) with Fetal Bovine Serum (FBS) that is stripped of hormones by charcoal treatment. The media is then removed, the cells are washed once with Phosphate buffer saline solution, and 50 μL Dulbecco's Modified Eagle Medium (DMEM) with Fetal Bovine Serum (FBS) that is stripped of hormones by charcoal treatment is added. Compounds of the disclosure are then added to the wells in eight concentration spanning 10 μM to 4.5 nM, and the plates are incubated for an additional 60 minutes at 37° C. 17α-OH Progesterone is then added (1.0 μM) and the plates are incubated for an additional 45 minutes at 37° C. After incubation, 50 uL of the supernatant (medium) is transferred into a fresh plate and 150 uL of an acetonitrile solution containing 200 ng/ml of Telmisartan is added. The sample is mixed and then placed in a centrifuge at 2000 rpm for 5 minutes. The note with it: AD293, 24 h.

On to `CS(=O)(=O)N1CCN(c2ccc(/C=C/c3cc(F)cc(Cn4ccnc4)c3)cc2)CC1`, for which the concentration for half-maximal inhibition (IC50) (usually the concentration needed to halve the response being measured) was determined as 10000 nM.
For `CS(=O)(=O)N1CCN(c2ccc(/C=C/c3cc(Cl)cc(-c4ccncc4)c3)cc2)CC1`, the half-inhibitory concentration (IC50) was determined as 840 nM.
Regarding `CS(=O)(=O)N1CCN(c2ccc(/C=C/c3cc(Cl)cc(Cn4ccnc4)c3)cc2)CC1`, the IC50 amounted to 2200 nM.
Turning to `CS(=O)(=O)N1CCN(c2ccc(/C=C/c3cc(F)cc(-c4ccncc4)c3)cc2)CC1`, the IC50 was 740 nM.
As for `N=C(N)N1CCN(c2ccc(/C=C/c3cc(F)cc(Cn4ccnc4)c3)cc2)CC1`, the IC50 was 10000 nM.
For the molecule `Clc1cc(/C=C/c2ccc(N3CCN(C4=NCCO4)CC3)cc2)cc(-c2ccncc2)c1`, the concentration for half-maximal inhibition (IC50) was found to be 1200 nM.
As for `CC(C)S(=O)(=O)N1CCN(c2ccc(/C=C/c3cc(Cl)cc(-c4ccncc4)c3)cc2)CC1`, the half-inhibitory concentration (IC50) turned out to be 565 nM.
As for `CC(C)S(=O)(=O)N1CCN(c2ccc(/C=C/c3cc(F)cc(Cn4ccnc4)c3)cc2)CC1`, the IC50 turned out to be 700 nM.
Consider `Fc1cc(/C=C/c2ccc(N3CCN(C4=NCCCO4)CC3)cc2)cc(Cn2ccnc2)c1`, for which the IC50 amounted to 1000 nM.
Consider `N=C(N)N1CCN(c2ccc(/C=C/c3cc(Cl)cc(Cn4ccnc4)c3)cc2)CC1`, for which the concentration for half-maximal inhibition (IC50) turned out to be 10000 nM.
To `N=C(N)N1CCN(c2ccc(/C=C/c3cc(F)cc(-c4ccncc4)c3)cc2)CC1` belongs 10000 nM; to `O=S(=O)(C1CC1)N1CCN(c2ccc(/C=C/c3cc(Cl)cc(-c4ccncc4)c3)cc2)CC1`, 416 nM.
For the molecule `Clc1cc(/C=C/c2ccc(N3CCN(C4=NCCO4)CC3)cc2)cc(Cn2ccnc2)c1`, the half-inhibitory concentration (IC50) came to 3500 nM.
Next, `Fc1cc(/C=C/c2ccc(N3CCN(C4=NCCO4)CC3)cc2)cc(Cn2ccnc2)c1`: 10000 nM; `Fc1cc(/C=C/c2ccc(N3CCN(C4=NCCO4)CC3)cc2)cc(-c2ccncc2)c1`: 1200 nM.
`N=C(N)N1CCN(c2ccc(/C=C/c3cc(Cl)cc(-c4ccncc4)c3)cc2)CC1`: the IC50 was found to be 10000 nM.
For the molecule `[C-]#[N+]CS(=O)(=O)N1CCN(c2ccc(/C=C/c3cc(F)cc(Cn4ccnc4)c3)cc2)CC1`, the 50% inhibitory concentration (IC50) was 10000 nM.
